In experiment [1] the test system is Penicillium digitatum (Pd). The experiment can be described thus: Antifungal activity of vapor against Penicillium digitatum (Pd) in wounded, infected mandarins. It is filed as in vivo. As to conditions: after 6 days.
Experiment [2] has as its system Colletotrichum gloeosporioides (Cg). The experiment can be described thus: Antifungal activity against Colletotrichum gloeosporioides (Cg) in wounded, infected avocados. It is filed as in vivo. To be noted: Example 9; avocados; vapor of 3 mL, 72 hour exposure. The method, then:
Example 7. The antifungal activity of AITC and DADS vapor against Colletotrichum gloeosporioides (Cg) was tested in avocados. All test pieces were wounded by removing the stem and infected by dispensing 1000 Cg spores suspended in 10 μL of water into the wound. The test groups consisted of avocados that were: untreated and uninfected; untreated and infected; treated by dipping in a solution of 0.1 g/L of prochloraz; exposed to the vapor of 3 mL of AITC disposed in a Petri dish; and exposed to the vapor of 3 mL of DADS disposed in a Petri dish. FIG. 9 quantifies the infection results. AITC vapor reduced the incidence of Cg mold by 97% compared to the untreated test group and 70% compared to the prochloraz treated test group. DADS vapor reduced the incidence of Cg mold by 60% compared to the untreated test group.
Example 8. The antifungal activity of a range of DADS vapor exposure times was tested against Cg in avocados. All test pieces were wounded by removing the stem and infected by dispensing 1000 Cg spores suspended in 10 μL of water into the wound. The test groups consisted of avocados that were: infected and untreated; and exposed to the vapor of 3 mL of DADS in a Petri dish for 24 hours, 48 hours, and 72 hours. FIG. 10 quantifies the infection results. Test group exposed to DADS vapor at all exposure times reduced the incidence of Cg mold compared to the untreated test group. A 24 hour DADS exposure reduced the incidence of Cg mold by 8%. A 48 hour DADS exposure reduced the incidence of Cg mold by 25%. A 72 hour DADS exposure reduced the incidence of Cg mold by 57%.
(§1) Example 9. The antifungal activity of a range of AITC and carvacrol vapor exposure times was tested against Cg in avocados. To measure the effect of the various treatments on ripening, durometer shore was taken after 7 days of incubation at ambient temperature and high humidity. All samples were wounded by removing the stem and infected by dispensing 1000 Cg spores suspended in 10 μL of water in the wound. The test groups consisted of avocados that were: infected and left untreated on the benchtop; infected and left untreated under a fume hood; exposed to the vapor of 3 mL of AITC in a Petri dish for 24 hours, 48 hours, and 72 hours; and exposed to the vapor of 3 mL of carvacrol in a Petri dish for 72 hours. FIG. 11 quantifies the infection results. […] All exposure times to AITC vapor reduced the incidence of Cg mold compared to the untreated samples. A 24 hour AITC exposure reduced the incidence of Cg mold by 90%. A 48 hour AITC exposure reduced the incidence of Cg mold by 97%. A 72 hour AITC exposure reduced the incidence of Cg mold by 83%.
(§2) Example 10. The antifungal activity of a range of AITC vapor exposure times were tested against Cg in avocados. To measure the effect of the various treatments on ripening, durometer shore was taken after 6 days of incubation at ambient temperature and high humidity. All samples were wounded by removing the stem and infected by dispensing 1000 Cg spores suspended in 10 μL of water in each wound. The test groups consisted of avocados that were: infected and left untreated on the benchtop; infected and left untreated in a fume hood; exposed to the vapor of 3 mL of AITC in a Petri dish for 24 hours, 48 hours, and 72 hours. FIG. 13 quantifies the infection results. […] All exposure times to AITC vapor reduced the incidence of Cg mold compared to the untreated samples.
Example 21. The antifungal activity of avocados exposed to AITC vapor and prochloraz was tested against Cg in avocados. To measure the effect of the various treatments on ripening, durometer shore was taken after 5 days of incubation at ambient temperature (about 20° C. to about 25° C.) and high humidity (about 88% relative humidity to about 93% relative humidity). All samples were wounded by removing the stem and infected by dispensing 1000 Cg spores suspended in 10 μL of water in the wound. […]

Experiment [3] deals with avocados. The experiment can be described thus: Durometer shore (firmness, ripening) of treated avocados. It is filed as in vivo, avocado. To be noted: Example 21; Cg-infected avocados; AITC 125 μL 30 minutes; prochloraz 0.1 g/L dip; after 5 days. The protocol: as §1, §2
Example 21. The antifungal activity of avocados exposed to AITC vapor and prochloraz was tested against Cg in avocados. To measure the effect of the various treatments on ripening, durometer shore was taken after 5 days of incubation at ambient temperature (about 20° C. to about 25° C.) and high humidity (about 88% relative humidity to about 93% relative humidity). All samples were wounded by removing the stem and infected by dispensing 1000 Cg spores suspended in 10 μL of water in the wound. Exposure to vapor was done by placing the avocados in an airtight container, dispensing AITC onto Whatman filter paper discs, suspending the discs in front of a battery-powered fan, closing the container and incubating the avocados for 30 minutes. After vapor exposure, the avocados were left at ambient temperature, high humidity, and assessed for Cg mold on day 5. Treatment groups consisted of avocados that were: exposed for 30 minutes to the vapor of 125 μL of AITC disposed on a filter paper disc; dipped in a solution of 0.1 g/L of prochloraz and placed to dry on a rack in front of a fan for 30 min; infected and left untreated; and uninfected and untreated. […] To prepare the 0.1 g/L of prochloraz, 10 mg of prochloraz was mixed with 10 mL of ethanol and 90 mL of water. […] A 24 hour AITC exposure reduced the incidence of Cg mold by 90%. […] The mean shore value for the untreated avocados was 28.8 (standard deviation (SD)=10.8). The mean shore value for the infected avocados was 47.3 (SD=11.8). The mean shore value of the positive control, prochloraz treated avocados was 44.3 (SD=14.7). The mean shore value of the AITC treated avocados was 61.1 (SD=10.5).
Durometer Shore Measurement: A Fruit Hardness Tester— HPE III Fff w/Sphere Ø 5.0 mm Test Anvil is used for the measurements. The Operating Procedure is as follows: • 1) At room temperature and 1 atm pressure, switch on the measuring device and press the hull or sleeve against the specimen so that the contact surface of the pressure plate rests on the fruit. […]

As for `C=CCc1ccc(O)c(OC)c1` [eugenol], the “performance against Pd versus the untreated samples” value in experiment [1] (Example 19, mandarins, 62.5 μL AITC and/or 125 μL of all other compounds, 30 minutes) was “performed better than the untreated samples”.

Consider `Cc1ccc(C(C)C)cc1O` [carvacrol], for which the “reduction of the incidence of Cg mold” value in experiment [2] is listed as “did not reduce the incidence of Cg mold”.

With `CCCN(CCOc1c(Cl)cc(Cl)cc1Cl)C(=O)n1ccnc1` [prochloraz, reference compound], in experiment [3], the mean shore value is 44.3 (SD=14.7).

On to `C=CCOC(Cn1ccnc1)c1ccc(Cl)cc1Cl` (stereo not shown) [imazalil, reference compound], for which the infected mandarins in experiment [1] (Example 6, treated with 1 g/L, fruit of poor quality with latent infection) worked out at 83.3%.

These data come from patent US20230292776A1, “GAS PHASE TREATMENT OF PRODUCE” (priority 2022, published 2023).
